Reference: ChEMBL document CHEMBL1201862, “PubChem BioAssay data set” (2004)
Active and inactive are the calls of the source.

Assays:
[1] = test system: Streptococcus; experiment: Group A Streptococcus viability loss, dose response, counter-screen for streptokinase expression inhibitor project, luminescence, BacTiterGlo (AID 1915); assay type: functional, organism-based;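 also: potency for reduction of bacterial viability or growth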
[2] = inhibitors of firefly luciferase expression or activity, dose response, H4 neuroglioma cells, luminescence (AID 1990); assay type: functional, cell-based
[3] = C. albicans growth with fluconazole, confirmation, fluorescence, retest (AID 2467); assay type: functional, cell-based
[4] = target: T1, Streptokinase A (Streptococcus pyogenes serotype M1, UniProt P10520); experiment: S. pyogenes streptokinase expression inhibitors, potency, dose response, plasminogen activation absorbance, OD405 (AID 1914); assay type: functional, Streptococcus pyogenes M1 GAS;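 also: secreted streptokinase activity via plasminogen activation per viability signal from cell pellet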
T1 sequence (P10520 whole entry): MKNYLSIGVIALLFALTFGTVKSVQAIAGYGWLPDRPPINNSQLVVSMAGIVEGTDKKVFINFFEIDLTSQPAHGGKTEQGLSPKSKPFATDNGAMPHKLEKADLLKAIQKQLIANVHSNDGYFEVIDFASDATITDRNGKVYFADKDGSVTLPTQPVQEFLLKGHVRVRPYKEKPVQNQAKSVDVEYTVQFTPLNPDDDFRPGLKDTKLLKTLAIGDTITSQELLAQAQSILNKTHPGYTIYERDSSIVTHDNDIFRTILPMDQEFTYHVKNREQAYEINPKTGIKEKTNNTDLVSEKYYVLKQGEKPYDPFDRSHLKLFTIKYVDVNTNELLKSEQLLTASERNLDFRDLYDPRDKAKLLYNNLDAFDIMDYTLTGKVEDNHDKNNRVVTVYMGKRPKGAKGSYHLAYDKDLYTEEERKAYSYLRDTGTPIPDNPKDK

[5] = Luminescence Cell-Based Dose Response HTS to Identify Inhibitors of 5'UTR Stem-Loop Driven Prion Protein mRNA Translation in H4 Neuroglioblastoma Cells. [Related pubchem assays: 1827 (Project Summary), 1813 (Primary HTS)]; assay type: functional
[6] = target: LIM domain kinase 1 (Homo sapiens, UniProt P53667); experiment: Navigating the Kinome. Panel member name: LIMK1; assay type: functional
[7] = target: Activin receptor type-1 (Homo sapiens, UniProt Q04771); experiment: Navigating the Kinome. Panel member name: ACVR1; assay type: functional
Chain of Activin receptor type-1 (Q04771 whole entry): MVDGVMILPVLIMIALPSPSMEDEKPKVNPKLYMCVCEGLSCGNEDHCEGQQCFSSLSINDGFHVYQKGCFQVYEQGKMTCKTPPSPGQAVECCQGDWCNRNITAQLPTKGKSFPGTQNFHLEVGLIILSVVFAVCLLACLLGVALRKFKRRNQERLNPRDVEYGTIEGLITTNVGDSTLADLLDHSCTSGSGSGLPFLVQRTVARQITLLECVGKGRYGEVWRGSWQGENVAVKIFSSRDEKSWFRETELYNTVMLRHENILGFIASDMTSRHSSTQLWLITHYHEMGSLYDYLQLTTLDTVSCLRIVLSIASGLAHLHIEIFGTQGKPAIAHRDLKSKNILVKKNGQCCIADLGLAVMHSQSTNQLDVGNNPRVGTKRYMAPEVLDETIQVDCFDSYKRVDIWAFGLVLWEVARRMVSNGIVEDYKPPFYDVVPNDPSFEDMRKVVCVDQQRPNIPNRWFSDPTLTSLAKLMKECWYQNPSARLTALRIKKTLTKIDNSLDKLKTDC

[8] = target: Mitogen-activated protein kinase 8 (Homo sapiens, UniProt P45983); assay type: functional;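 also: value comes from one member of a kinome-wide kinase profiling panel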
[9] = target: Tyrosine-protein kinase JAK2 (Homo sapiens, UniProt O60674); assay type: functional;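 also: JAK2 tested as one member of a kinase panel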
[10] = target: Rho-associated protein kinase 1 (Homo sapiens, UniProt Q13464); assay type: functional;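 also: measured within a broad kinome-wide panel profiling many kinases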
Chain of Rho-associated protein kinase 1 (Q13464 whole entry): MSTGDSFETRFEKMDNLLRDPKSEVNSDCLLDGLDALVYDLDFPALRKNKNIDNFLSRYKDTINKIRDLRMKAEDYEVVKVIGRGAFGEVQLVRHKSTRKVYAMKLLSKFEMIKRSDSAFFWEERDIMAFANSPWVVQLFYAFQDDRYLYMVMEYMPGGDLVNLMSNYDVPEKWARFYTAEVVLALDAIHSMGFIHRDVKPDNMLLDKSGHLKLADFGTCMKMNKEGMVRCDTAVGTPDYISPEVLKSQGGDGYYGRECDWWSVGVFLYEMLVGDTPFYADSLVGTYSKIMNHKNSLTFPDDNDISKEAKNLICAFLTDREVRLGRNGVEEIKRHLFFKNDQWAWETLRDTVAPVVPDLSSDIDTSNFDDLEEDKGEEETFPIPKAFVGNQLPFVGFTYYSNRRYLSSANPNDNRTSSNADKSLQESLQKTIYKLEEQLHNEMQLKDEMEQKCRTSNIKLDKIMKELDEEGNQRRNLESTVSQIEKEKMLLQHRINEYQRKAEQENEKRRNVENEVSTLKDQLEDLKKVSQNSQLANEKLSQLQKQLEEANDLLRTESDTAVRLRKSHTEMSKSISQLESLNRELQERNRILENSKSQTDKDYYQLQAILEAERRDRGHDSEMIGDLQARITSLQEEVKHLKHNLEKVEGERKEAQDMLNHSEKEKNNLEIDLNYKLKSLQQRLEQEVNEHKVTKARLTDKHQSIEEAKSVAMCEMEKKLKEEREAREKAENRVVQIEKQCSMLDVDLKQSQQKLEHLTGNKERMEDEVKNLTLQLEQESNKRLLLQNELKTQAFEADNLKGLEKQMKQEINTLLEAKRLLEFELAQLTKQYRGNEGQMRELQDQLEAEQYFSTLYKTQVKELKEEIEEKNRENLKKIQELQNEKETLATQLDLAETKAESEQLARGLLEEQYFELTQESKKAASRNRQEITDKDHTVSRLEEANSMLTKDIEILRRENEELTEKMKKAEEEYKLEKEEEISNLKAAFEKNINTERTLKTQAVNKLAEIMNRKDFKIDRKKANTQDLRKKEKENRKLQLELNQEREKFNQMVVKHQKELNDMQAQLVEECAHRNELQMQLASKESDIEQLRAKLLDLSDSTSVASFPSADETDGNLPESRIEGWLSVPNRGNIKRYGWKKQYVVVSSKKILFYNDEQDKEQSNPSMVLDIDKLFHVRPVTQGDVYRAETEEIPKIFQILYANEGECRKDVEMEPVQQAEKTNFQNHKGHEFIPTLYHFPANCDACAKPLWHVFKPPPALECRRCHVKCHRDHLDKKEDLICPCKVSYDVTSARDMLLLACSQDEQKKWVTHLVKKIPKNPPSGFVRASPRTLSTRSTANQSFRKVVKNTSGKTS

[11] = target: Serine/threonine-protein kinase PAK 4 (Homo sapiens, UniProt O96013); assay type: functional;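 also: value obtained within a kinome profiling panel in which PAK4 was one of the panel members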
[12] = target: Cyclin-dependent kinase 7 (Homo sapiens, UniProt P50613); assay type: functional;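 also: value comes from a kinome-wide kinase profiling panel in which CDK7 is one member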
[13] = target: Dual specificity mitogen-activated protein kinase kinase 1 (Homo sapiens, UniProt Q02750); experiment: Navigating the Kinome. Panel member name: MAP2K1; assay type: functional
[14] = target: Mitogen-activated protein kinase kinase kinase kinase 4 (Homo sapiens, UniProt O95819); assay type: functional
Chain of Mitogen-activated protein kinase kinase kinase kinase 4 (O95819 whole entry): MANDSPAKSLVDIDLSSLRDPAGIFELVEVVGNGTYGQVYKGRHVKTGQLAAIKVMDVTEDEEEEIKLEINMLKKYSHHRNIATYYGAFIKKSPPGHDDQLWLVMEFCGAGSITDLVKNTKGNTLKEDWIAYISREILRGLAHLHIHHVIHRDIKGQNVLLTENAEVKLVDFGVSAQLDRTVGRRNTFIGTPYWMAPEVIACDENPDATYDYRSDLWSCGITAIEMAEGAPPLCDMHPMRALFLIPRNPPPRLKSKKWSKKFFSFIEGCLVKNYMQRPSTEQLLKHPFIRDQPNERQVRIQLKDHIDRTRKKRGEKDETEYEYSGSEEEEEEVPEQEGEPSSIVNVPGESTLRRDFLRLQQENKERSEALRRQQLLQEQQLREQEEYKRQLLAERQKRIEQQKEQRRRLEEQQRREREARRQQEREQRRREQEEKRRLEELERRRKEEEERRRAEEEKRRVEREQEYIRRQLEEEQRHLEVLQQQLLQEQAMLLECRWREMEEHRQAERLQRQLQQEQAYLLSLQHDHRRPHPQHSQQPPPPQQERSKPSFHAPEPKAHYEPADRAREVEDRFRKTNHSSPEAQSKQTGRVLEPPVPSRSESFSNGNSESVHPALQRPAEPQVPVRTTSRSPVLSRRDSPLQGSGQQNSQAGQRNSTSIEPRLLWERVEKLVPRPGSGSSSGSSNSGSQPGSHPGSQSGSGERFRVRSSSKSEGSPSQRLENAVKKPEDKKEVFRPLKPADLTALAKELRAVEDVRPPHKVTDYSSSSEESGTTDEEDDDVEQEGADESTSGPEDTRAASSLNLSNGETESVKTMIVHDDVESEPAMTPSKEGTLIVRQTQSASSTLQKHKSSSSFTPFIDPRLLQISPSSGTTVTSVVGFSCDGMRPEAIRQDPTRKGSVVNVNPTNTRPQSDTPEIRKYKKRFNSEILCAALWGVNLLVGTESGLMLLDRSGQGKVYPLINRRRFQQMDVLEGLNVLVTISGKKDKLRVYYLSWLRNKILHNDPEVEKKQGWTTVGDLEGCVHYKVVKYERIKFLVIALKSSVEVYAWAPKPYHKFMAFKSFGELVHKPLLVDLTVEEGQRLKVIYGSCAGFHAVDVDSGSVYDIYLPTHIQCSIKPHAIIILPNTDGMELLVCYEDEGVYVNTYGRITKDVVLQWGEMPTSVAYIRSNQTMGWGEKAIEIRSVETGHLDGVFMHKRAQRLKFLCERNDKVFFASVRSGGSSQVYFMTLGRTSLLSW

[15] = target: Death-associated protein kinase 3 (Homo sapiens, UniProt O43293); assay type: functional;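 also: measured as one member of a kinome-wide profiling panel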
[16] = target: Mitogen-activated protein kinase 9 (Homo sapiens, UniProt P45984); assay type: functional;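 also: value from a kinome panel profiling assay, MAPK9 panel entry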
[17] = target: Serine/threonine-protein kinase TAO1 (Homo sapiens, UniProt Q7L7X3); assay type: functional
[18] = target: Dual specificity protein kinase CLK2 (Homo sapiens, UniProt P49760); assay type: functional
[19] = target: Proto-oncogene tyrosine-protein kinase receptor Ret (Homo sapiens, UniProt P07949); assay type: functional;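 also: measured within a kinome-wide profiling panel, RET as the panel member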
[20] = target: Serine/threonine-protein kinase TBK1 (Homo sapiens, UniProt Q9UHD2); experiment: Navigating the Kinome. Panel member name: TBK1; assay type: functional
[21] = target: Mitogen-activated protein kinase 14 (Homo sapiens, UniProt Q16539); assay type: functional;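 also: part of a kinome-wide panel, MAPK14 entry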
[22] = target: Serine/threonine-protein kinase Chk1 (Homo sapiens, UniProt O14757); assay type: functional;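 also: measured as one member of a kinome-wide kinase profiling panel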
[23] = target: Tyrosine-protein kinase ABL1 (Homo sapiens, UniProt P00519); assay type: functional
Chain of Tyrosine-protein kinase ABL1 (P00519 whole entry): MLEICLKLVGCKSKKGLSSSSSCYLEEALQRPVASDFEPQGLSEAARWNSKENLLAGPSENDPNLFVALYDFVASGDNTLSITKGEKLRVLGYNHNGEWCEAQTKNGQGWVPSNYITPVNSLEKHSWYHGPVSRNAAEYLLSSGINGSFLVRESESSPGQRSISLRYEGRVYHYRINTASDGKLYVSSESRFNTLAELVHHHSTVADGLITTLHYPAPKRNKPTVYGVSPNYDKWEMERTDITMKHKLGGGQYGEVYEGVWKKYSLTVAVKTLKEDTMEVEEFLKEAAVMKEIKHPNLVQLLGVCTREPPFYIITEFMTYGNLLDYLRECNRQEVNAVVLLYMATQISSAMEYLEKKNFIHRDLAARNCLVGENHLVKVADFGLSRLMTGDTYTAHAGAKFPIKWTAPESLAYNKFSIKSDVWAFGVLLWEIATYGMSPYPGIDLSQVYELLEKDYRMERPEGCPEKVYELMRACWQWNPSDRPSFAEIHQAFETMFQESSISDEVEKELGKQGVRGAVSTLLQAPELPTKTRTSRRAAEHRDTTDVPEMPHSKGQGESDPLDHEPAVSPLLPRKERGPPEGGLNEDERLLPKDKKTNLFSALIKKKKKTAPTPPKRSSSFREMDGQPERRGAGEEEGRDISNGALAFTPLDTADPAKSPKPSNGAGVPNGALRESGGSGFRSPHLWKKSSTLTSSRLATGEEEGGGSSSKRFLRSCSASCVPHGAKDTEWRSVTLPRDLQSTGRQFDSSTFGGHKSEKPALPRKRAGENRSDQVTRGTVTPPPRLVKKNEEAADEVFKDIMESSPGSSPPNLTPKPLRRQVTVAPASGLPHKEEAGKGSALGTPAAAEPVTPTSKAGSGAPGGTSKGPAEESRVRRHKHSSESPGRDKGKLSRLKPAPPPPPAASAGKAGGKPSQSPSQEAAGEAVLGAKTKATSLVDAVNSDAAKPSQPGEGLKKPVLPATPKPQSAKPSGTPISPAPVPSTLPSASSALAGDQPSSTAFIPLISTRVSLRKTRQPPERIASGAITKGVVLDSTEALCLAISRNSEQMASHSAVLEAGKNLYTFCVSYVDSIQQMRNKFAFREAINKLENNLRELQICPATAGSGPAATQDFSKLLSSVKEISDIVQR

[24] = target: Tyrosine-protein kinase Fyn (Homo sapiens, UniProt P06241); assay type: functional
[25] = test system: HT-1080; experiment: cytotoxicity in HT1080 fibrosarcoma cells, cell-based, fluorescence readout (AID 620); assay type: functional; conditions: Homo sapiens
[26] = target: T2, Estrogen receptor (Homo sapiens, UniProt P03372);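 also: potency for inhibiting coactivator peptide recruitment to the receptor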
T2 sequence (P03372 whole entry): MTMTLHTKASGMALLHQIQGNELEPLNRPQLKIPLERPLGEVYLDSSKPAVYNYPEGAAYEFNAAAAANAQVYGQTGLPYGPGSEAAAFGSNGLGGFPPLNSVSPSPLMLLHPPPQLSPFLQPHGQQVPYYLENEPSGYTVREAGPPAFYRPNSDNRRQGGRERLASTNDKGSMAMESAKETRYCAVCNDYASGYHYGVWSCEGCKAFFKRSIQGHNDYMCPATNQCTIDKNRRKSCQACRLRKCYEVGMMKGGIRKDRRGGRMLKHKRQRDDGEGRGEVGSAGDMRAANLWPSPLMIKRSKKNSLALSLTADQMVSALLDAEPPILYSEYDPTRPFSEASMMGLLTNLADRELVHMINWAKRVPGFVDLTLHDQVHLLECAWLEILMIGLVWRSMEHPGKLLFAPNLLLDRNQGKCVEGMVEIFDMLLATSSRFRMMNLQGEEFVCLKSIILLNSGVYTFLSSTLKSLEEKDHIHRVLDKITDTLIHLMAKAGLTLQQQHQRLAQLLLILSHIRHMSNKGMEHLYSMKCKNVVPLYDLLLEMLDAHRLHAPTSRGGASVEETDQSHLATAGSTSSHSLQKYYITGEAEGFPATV

[27] = target: T3, Estrogen receptor beta (Homo sapiens, UniProt Q92731); experiment: ERβ–SRC-3 coactivator interaction inhibitors, confirmation, orthogonal assay, biochemical, ELISA, streptavidin-HRP readout (AID 1060)
T3 sequence (Q92731 whole entry): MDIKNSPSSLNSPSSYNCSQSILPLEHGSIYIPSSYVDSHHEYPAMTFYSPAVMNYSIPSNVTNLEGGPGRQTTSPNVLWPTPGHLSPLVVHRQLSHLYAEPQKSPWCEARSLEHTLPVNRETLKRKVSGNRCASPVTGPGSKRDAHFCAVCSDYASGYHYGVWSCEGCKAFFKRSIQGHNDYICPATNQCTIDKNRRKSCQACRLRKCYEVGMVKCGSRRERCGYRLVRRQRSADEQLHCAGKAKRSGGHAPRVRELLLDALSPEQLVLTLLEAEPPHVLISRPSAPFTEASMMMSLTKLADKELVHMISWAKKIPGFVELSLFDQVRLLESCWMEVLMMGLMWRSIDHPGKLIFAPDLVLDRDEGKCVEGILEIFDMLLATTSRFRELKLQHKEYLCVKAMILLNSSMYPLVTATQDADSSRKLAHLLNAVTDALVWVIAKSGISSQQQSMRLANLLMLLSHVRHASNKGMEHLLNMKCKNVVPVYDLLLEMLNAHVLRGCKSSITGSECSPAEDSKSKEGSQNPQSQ

[28] = target: T3, Estrogen receptor beta
[29] = target: T4, Sentrin-specific protease 8 (Homo sapiens, UniProt Q96LD8); assay type: functional;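 also: luminescence read-out of SENP8 inhibition, dose-response confirmation following an ultra-high-throughput screen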
T4 sequence (Q96LD8 whole entry): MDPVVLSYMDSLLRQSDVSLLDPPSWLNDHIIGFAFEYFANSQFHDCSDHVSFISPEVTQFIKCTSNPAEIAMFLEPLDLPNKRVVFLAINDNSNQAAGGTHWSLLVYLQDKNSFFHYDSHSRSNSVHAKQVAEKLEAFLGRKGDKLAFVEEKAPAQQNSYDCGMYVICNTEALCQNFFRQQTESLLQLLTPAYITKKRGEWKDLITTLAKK

With CN1CCN(C(c2ccc(C(F)(F)F)cc2)c2cc(Cl)c3cccnc3c2O)CC1 (centres undefined) the EC50 [1] was 6.51 µM (active), the EC50 [2] was 10.5 µM (active) and the EC50 [3] was 0.666 µM (active). For the same compound, the EC50 [4] was > 150 µM (not active) and the EC50 [5] was 9.3 µM (active).

In the case of O=C(NC(CCO)c1ccccc1)c1ccc(-c2ccncc2)cc1 (centres undefined), the Ki [6] is reported as > 3.16 µM (inactive), the Ki [7] is reported as > 3.98 µM (inactive) and the Ki [8] is reported as > 5.01 µM (inactive). The Ki [9] was > 2.51 µM (inactive), the Ki [10] was 0.00631 µM (active) and the Ki [11] was > 5.01 µM (inactive). The Ki [12] was > 3.98 µM (inactive), the Ki [13] was > 3.16 µM (inactive) and the Ki [14] was > 5.01 µM (inactive). For the same compound, the Ki [15] was > 5.01 µM (inactive), the Ki [16] was > 3.98 µM (inactive) and the Ki [17] was > 6.31 µM (inactive). For the same compound, the Ki [18] was > 3.98 µM (inactive), the Ki [19] was > 3.16 µM (inactive) and the Ki [20] was > 3.16 µM (inactive). For the same compound, the Ki [21] was > 3.98 µM (inactive), the Ki [22] was > 3.16 µM (inactive) and the Ki [23] was > 3.98 µM (inactive). The Ki [24] was > 6.31 µM (inactive).

With NC(=O)c1c(NC(=O)c2cc3ccccc3o2)sc2c1CCC2 the EC50 [25] was > 50 µM (not active), the IC50 [26] was 23.5 µM (active) and the IC50 [27] was 0.0552 µM (not active). The IC50 [28] was > 50 µM (not active) and the IC50 [29] was 12.4 µM (active).
